Measured values published in ChEMBL document CHEMBL4819019, “Design, synthesis, antibacterial activity and toxicity of novel quaternary ammonium compounds based on pyridoxine and fatty acids” (Eur J Med Chem, 2021).
Values after ≈ are worked out from the molar mass of the structure shown. Active and inactive are the calls of the source. The calls are words filed in the database; no cut-off is given here.

How the values were obtained:
Staphylococcus aureus [1] = experiment: Antibacterial activity against Staphylococcus aureus ATCC 29213 measured after 24 hrs by broth microdilution method; assay type: functional
Bacillus subtilis = experiment: Antibacterial activity against Bacillus subtilis 168 measured after 24 hrs by broth microdilution method; assay type: functional
Micrococcus luteus = experiment: Antibacterial activity against Micrococcus luteus clinical isolate measured after 24 hrs by broth microdilution method; assay type: functional
Escherichia coli [2] = experiment: Antibacterial activity against Escherichia coli MG 1655 measured after 24 hrs by broth microdilution method; assay type: functional
Pseudomonas aeruginosa [3] = experiment: Antibacterial activity against Pseudomonas aeruginosa ATCC 27853 measured after 24 hrs by broth microdilution method; assay type: functional
[4] = Cytotoxicity against human HEK293 cells assessed as cell viability measured after 72 hrs by MTT assay; assay type: cell-based
[5] = Cytotoxicity against human mesenchymal stem cells assessed as cell viability measured after 72 hrs by MTT assay; assay type: cell-based
[6] = Cytotoxicity against human skin fibroblasts assessed as cell viability measured after 72 hrs by MTT assay; assay type: cell-based, Fibroblast
[7] = Acute toxicity in po dosed C57BL/6CBA mouse measured upto 7 days; assay type: organism-based; conditions: in vivo, time <=7 day
[8] = Lipophilicity, logP of the compound; assay type: physicochemical; conditions: octanol/water
[9] = tested on: Staphylococcus ureilyticus; experiment: Antibacterial activity against clinical isolate Staphylococcus ureilyticus 1972 measured after 24 hrs by broth microdilution method; assay type: functional
Staphylococcus aureus [10] = experiment: Antibacterial activity against clinical isolate methicillin-resistant Staphylococcus aureus 713 measured after 24 hrs by broth microdilution method; assay type: functional
Staphylococcus aureus [11] = experiment: Antibacterial activity against clinical isolate methicillin-resistant Staphylococcus aureus 983 measured after 24 hrs by broth microdilution method; assay type: functional
Staphylococcus aureus [12] = experiment: Antibacterial activity against clinical isolate methicillin-resistant Staphylococcus aureus 1053 measured after 24 hrs by broth microdilution method; assay type: functional
[13] = tested on: Staphylococcus intermedius; experiment: Antibacterial activity against clinical isolate methicillin-resistant Staphylococcus intermedius 1061 measured after 24 hrs by broth microdilution method; assay type: functional
Staphylococcus aureus [14] = experiment: Antibacterial activity against clinical isolate methicillin-resistant Staphylococcus aureus 1065 measured after 24 hrs by broth microdilution method; assay type: functional
Staphylococcus aureus [15] = experiment: Antibacterial activity against clinical isolate methicillin-resistant Staphylococcus aureus 1131 measured after 24 hrs by broth microdilution method; assay type: functional
[16] = tested on: Staphylococcus intermedius; experiment: Antibacterial activity against clinical isolate methicillin-resistant Staphylococcus intermedius 1143 measured after 24 hrs by broth microdilution method; assay type: functional
Staphylococcus aureus [17] = experiment: Antibacterial activity against clinical isolate Staphylococcus aureus 25 measured after 24 hrs by broth microdilution method; assay type: functional
Enterococcus faecalis [18] = experiment: Antibacterial activity against clinical isolate Enterococcus faecalis 23 measured after 24 hrs by broth microdilution method; assay type: functional
Enterococcus faecalis [19] = experiment: Antibacterial activity against clinical isolate Enterococcus faecalis 3063 measured after 24 hrs by broth microdilution method; assay type: functional
Acinetobacter sp. = experiment: Antibacterial activity against clinical isolate Acinetobacter sp. 3 measured after 24 hrs by broth microdilution method; assay type: functional
Pseudomonas sp. = experiment: Antibacterial activity against clinical isolate Pseudomonas sp. 5 measured after 24 hrs by broth microdilution method; assay type: functional
Klebsiella sp. = experiment: Antibacterial activity against clinical isolate Klebsiella sp. 11 measured after 24 hrs by broth microdilution method; assay type: functional
Proteus sp. = experiment: Antibacterial activity against clinical isolate Proteus sp. 17 measured after 24 hrs by broth microdilution method; assay type: functional; conditions: Proteus sp. (in: enterobacteria)
Escherichia coli [20] = experiment: Antibacterial activity against clinical isolate Escherichia coli 718 measured after 24 hrs by broth microdilution method; assay type: functional
Moraxella = experiment: Antibacterial activity against clinical isolate Moraxella 765 measured after 24 hrs by broth microdilution method; assay type: functional
Klebsiella pneumoniae = experiment: Antibacterial activity against clinical isolate Klebsiella pneumoniae 1813 measured after 24 hrs by broth microdilution method; assay type: functional
Pseudomonas aeruginosa [21] = experiment: Antibacterial activity against clinical isolate Pseudomonas aeruginosa 1945 measured after 24 hrs by broth microdilution method; assay type: functional
Serratia marcescens = experiment: Antibacterial activity against clinical isolate Serratia marcescens 1966 measured after 24 hrs by broth microdilution method; assay type: functional
Staphylococcus aureus [22] = experiment: Antibacterial activity against Staphylococcus aureus assessed as fold increase in MIC after 8 passages by serial dilution method; assay type: functional, organism-based; conditions: time 24.0 hrs
Escherichia coli [23] = experiment: Antibacterial activity against Escherichia coli assessed as fold increase in MIC after 4 passages by serial dilution method; assay type: functional, organism-based; conditions: time 24.0 hrs
[24] = Genotoxicity in Salmonella typhimurium TA1535/pSK1002 assessed as DNA-damage activity by measuring beta-galactosidase activity at 750 ug/ml measured by SOS-chromotest relative to solvent control; assay type: toxicity; conditions: salmonella enterica subsp. enterica serovar typhimurium; dose 750 µg/ml
[25] = Genotoxicity in Salmonella typhimurium TA1535/pSK1002 assessed as DNA-damage activity by measuring beta-galactosidase activity at 150 ug/ml measured by SOS-chromotest relative to solvent control; assay type: toxicity; conditions: salmonella enterica subsp. enterica serovar typhimurium; dose 150 µg/ml
[26] = Genotoxicity in Salmonella typhimurium TA1535/pSK1002 assessed as DNA-damage activity by measuring beta-galactosidase activity at 75 ug/ml measured by SOS-chromotest relative to solvent control; assay type: toxicity; conditions: salmonella enterica subsp. enterica serovar typhimurium; dose 75 µg/ml
[27] = Genotoxicity in Salmonella typhimurium TA1535/pSK1002 assessed as DNA-damage activity by measuring beta-galactosidase activity at 15 ug/ml measured by SOS-chromotest relative to solvent control; assay type: toxicity; conditions: salmonella enterica subsp. enterica serovar typhimurium; dose 15 µg/ml
[28] = Genotoxicity in Salmonella typhimurium TA1535/pSK1002 assessed as DNA-damage activity by measuring beta-galactosidase activity at 7.5 ug/ml measured by SOS-chromotest relative to solvent control; assay type: toxicity; conditions: salmonella enterica subsp. enterica serovar typhimurium; dose 7.5 µg/ml
[29] = Genotoxicity in Salmonella typhimurium TA1535 assessed as number of revertant by Ames spot test relative to solvent control; assay type: toxicity; conditions: salmonella enterica subsp. enterica serovar typhimurium
[30] = Genotoxicity in Salmonella typhimurium TA1537 assessed as number of revertant by Ames spot test relative to solvent control; assay type: toxicity; conditions: salmonella enterica subsp. enterica serovar typhimurium
[31] = Genotoxicity in Salmonella typhimurium TA98 assessed as number of revertant by Ames spot test relative to solvent control; assay type: toxicity; conditions: salmonella enterica subsp. enterica serovar typhimurium
[32] = Genotoxicity in Salmonella typhimurium TA100 assessed as number of revertant by Ames spot test relative to solvent control; assay type: toxicity; conditions: salmonella enterica subsp. enterica serovar typhimurium

| SMILES | MIC (Staphylococcus aureus [1]) | MIC (Bacillus subtilis) | MIC (Micrococcus luteus) | MIC (Escherichia coli [2]) | MIC (Pseudomonas aeruginosa [3]) | CC50 at 72 h [4] | CC50 at 72 h [5] | CC50 at 72 h [6] | LD50 at 168 h [7] | logP [8] | MIC [9] | MIC (Staphylococcus aureus [10]) | MIC (Staphylococcus aureus [11]) | MIC (Staphylococcus aureus [12]) | MIC [13] | MIC (Staphylococcus aureus [14]) | MIC (Staphylococcus aureus [15]) | MIC [16] | MIC (Staphylococcus aureus [17]) | MIC (Enterococcus faecalis [18]) | also measured |
| --- | --- | --- | --- | --- | --- | --- | --- | --- | --- | --- | --- | --- | --- | --- | --- | --- | --- | --- | --- | --- | --- |
| [H]/N=C(\N/C(=N/[H])NCCCCCCNC(=N)NC(=N)Nc1ccc(Cl)cc1)Nc1ccc(Cl)cc1 [CHLORHEXIDINE] | 2 mg/L (≈ 3.96 µM) | 1 mg/L (≈ 1.98 µM) | 0.5 mg/L (≈ 0.989 µM) | 1 mg/L (≈ 1.98 µM) | 4 mg/L (≈ 7.91 µM) | 7.28 mg/L (≈ 14.4 µM) | 5.12 mg/L (≈ 10.1 µM) | 6.32 mg/L (≈ 12.5 µM) | 1260 mg/kg | 4.51 | – | – | – | – | – | – | – | – | – | – | – |
| CCCCCCCCCCCCCC(=O)NCCC[N+](C)(C)Cc1ccccc1.[Cl-] [MIRAMISTIN] | 2 mg/L | 4 mg/L | 2 mg/L | 8 mg/L | 1 mg/L | 6.08 mg/L | 4.16 mg/L | 7.21 mg/L | 1000 mg/kg | 2.43 | > 64 mg/L | 64 mg/L | > 64 mg/L | 32 mg/L | 64 mg/L | 32 mg/L | 32 mg/L | 64 mg/L | 16 mg/L | 4 mg/L | MIC (Enterococcus faecalis [19]): 16 mg/L; MIC (Acinetobacter sp.): > 64 mg/L; MIC (Pseudomonas sp.): > 64 mg/L; MIC (Klebsiella sp.): > 64 mg/L; MIC (Proteus sp.): > 64 mg/L; MIC (Escherichia coli [20]): 64 mg/L; MIC (Moraxella): > 64 mg/L; MIC (Klebsiella pneumoniae): 16 mg/L; MIC (Pseudomonas aeruginosa [21]): 64 mg/L; MIC (Serratia marcescens): > 64 mg/L; MIC (Staphylococcus aureus [22]): Active; MIC (Escherichia coli [23]): Active |
| CCCCCCCCCCCCCC(=O)OCC[N+](C)(C)Cc1cnc(C)c2c1COC(C)(C)O2.[Cl-] | 0.5 mg/L | 1 mg/L | 0.5 mg/L | 8 mg/L | 1 mg/L | 0.17 mg/L | 1.08 mg/L | 1.94 mg/L | – | 2.14 | > 64 mg/L | 8 mg/L | 64 mg/L | 8 mg/L | 8 mg/L | 8 mg/L | 16 mg/L | 8 mg/L | 8 mg/L | 4 mg/L | Ratio [24]: 0.4; Ratio [25]: 0.6; Ratio [26]: 1.2; Ratio [27]: 1.6; Ratio [28]: 1.6; Ratio [29]: 0.9; Ratio [30]: 0.02; Ratio [31]: 4.6; Ratio [32]: 1.4; MIC (Enterococcus faecalis [19]): 4 mg/L; MIC (Acinetobacter sp.): 64 mg/L; MIC (Pseudomonas sp.): 64 mg/L; MIC (Klebsiella sp.): 64 mg/L; MIC (Proteus sp.): > 64 mg/L; MIC (Escherichia coli [20]): 32 mg/L; MIC (Moraxella): 64 mg/L; MIC (Klebsiella pneumoniae): 64 mg/L; MIC (Pseudomonas aeruginosa [21]): 64 mg/L; MIC (Serratia marcescens): 64 mg/L |
